Assay results as given in PubChem BioAssay AID210 (DTP/NCI, 2004).
Where “and” joins values, the source holds several entries; their conditions need not be identical. Equal entries are not always repeated. Toxic doses and inconclusive results are not listed. How the source made its calls: active means survival T/C of 150% or more; inactive means T/C below 125% in these data.

System: CD2F1 mice, ip Colon 26 adenocarcinoma, median survival T/C
Assay: NCI In Vivo Anticancer Drug Screen. Data for tumor model Colon 26 Adenocarcinoma (intraperitoneal) in CD2F1 (CDF1) mice
Conditions: endpoint: median survival time, higher = longer survival
Protocol: The antitumor activity of compounds was measured in mice bearing transplantable tumors. Survival or tumor size were measured and the results are expressed as the measurement made in the treated group (T) divided by the measurement made in the vehicle treated control group (C). The tumor model used in this assay is Colon 26 Adenocarcinoma (intraperitoneal) in CD2F1 (CDF1) mice

Measured: T/C

O=NN(CCCl)C(=O)NC1CCC(=O)NC1=O (stereo unspecified)
active: dose: 2.8 mg/kg/injection, schedule: Q04DX003 (ip), vehicle: saline with Tween-80 243 % of control | dose: 5.1 mg/kg/injection, schedule: Q07DX002 (oral), vehicle: saline with Tween-80 179 % of control | dose: 5.1 mg/kg/injection, schedule: Q07DX003 (oral), vehicle: saline with Tween-80 224 % of control | dose: 5.1 mg/kg/injection, schedule: Q07DX004 (oral), vehicle: saline with Tween-80 215 % of control | dose: 5.2 mg/kg/injection, schedule: Q04DX003 (oral), vehicle: saline with Tween-80 269 % of control | dose: 5.6 mg/kg/injection, schedule: Q04DX003 (ip), vehicle: saline with Tween-80 269 % of control | dose: 7.7 mg/kg/injection, schedule: Q01DX001 (oral), vehicle: saline with Tween-80 165 % of control | dose: 7.7 mg/kg/injection, schedule: Q07DX002 (oral), vehicle: saline with Tween-80 204 % of control | dose: 7.7 mg/kg/injection, schedule: Q07DX003 (oral), vehicle: saline with Tween-80 250 % of control | dose: 7.7 mg/kg/injection, schedule: Q07DX004 (oral), vehicle: saline with Tween-80 265 % of control | dose: 8.5 mg/kg/injection, schedule: Q04DX003 (oral), vehicle: saline with Tween-80 280 % of control | dose: 11.25 mg/kg/injection, schedule: Q04DX003 (ip), vehicle: saline with Tween-80 269 % of control | dose: 11.5 mg/kg/injection, schedule: Q01DX001 (oral), vehicle: saline with Tween-80 189 % of control | dose: 11.5 mg/kg/injection, schedule: Q07DX002 (oral), vehicle: saline with Tween-80 251 % of control | dose: 11.5 mg/kg/injection, schedule: Q07DX003 (oral), vehicle: saline with Tween-80 255 % of control | dose: 11.5 mg/kg/injection, schedule: Q07DX004 (oral), vehicle: saline with Tween-80 369 % of control | dose: 13.6 mg/kg/injection, schedule: Q04DX003 (oral), vehicle: saline with Tween-80 307 % of control | dose: 17.4 mg/kg/injection, schedule: Q01DX001 (oral), vehicle: saline with Tween-80 189 % of control | dose: 17.4 mg/kg/injection, schedule: Q07DX002 (oral), vehicle: saline with Tween-80 230 % of control | dose: 17.4 mg/kg/injection, schedule: Q07DX003 (oral), vehicle: saline with Tween-80 369 % of control | dose: 17.4 mg/kg/injection, schedule: Q07DX004 (oral), vehicle: saline with Tween-80 261 % of control | dose: 26.0 mg/kg/injection, schedule: Q01DX001 (oral), vehicle: saline with Tween-80 210 % of control | dose: 26.0 mg/kg/injection, schedule: Q07DX002 (oral), vehicle: saline with Tween-80 405 % of control | dose: 26.0 mg/kg/injection, schedule: Q07DX003 (oral), vehicle: saline with Tween-80 184 % of control | dose: 39.0 mg/kg/injection, schedule: Q01DX001 (oral), vehicle: saline with Tween-80 278 % of control

CC(=O)OC1C2(CC3N4C(=O)C5(CO)SSC4(CC31O)C(=O)N5C)OC(C)C(C)(C)C2=O (stereo unspecified)
inactive: dose: 1.25 mg/kg/injection, schedule: Q04DX002 (ip), vehicle: saline 97 % of control | dose: 2.5 mg/kg/injection, schedule: Q04DX002 (ip), vehicle: saline 108 % of control | dose: 5.0 mg/kg/injection, schedule: Q04DX002 (ip), vehicle: saline 87 % of control

NC(=O)c1ncn(C2OC(CO)C(O)C2O)c1O (stereo unspecified)
inactive: dose: 50.0 mg/kg/injection, schedule: Q04DX002 (ip), vehicle: Klucel (hydroxypropylcellulose) (HPC) 107 % of control | dose: 100.0 mg/kg/injection, schedule: Q04DX002 (ip), vehicle: Klucel (hydroxypropylcellulose) (HPC) 98 % of control | dose: 200.0 mg/kg/injection, schedule: Q04DX002 (ip), vehicle: Klucel (hydroxypropylcellulose) (HPC) 107 % of control | dose: 400.0 mg/kg/injection, schedule: Q04DX002 (ip), vehicle: Klucel (hydroxypropylcellulose) (HPC) 111 % of control

Cc1c2oc3c(C)c(N)cc(C(=O)NC4C(=O)NC(C(C)C)C(=O)N5CCCC5C(=O)N(C)CC(=O)N(C)C(C(C)C)C(=O)OC4C)c3nc-2c(C(=O)NC2C(=O)NC(C(C)C)C(=O)N3CCCC3C(=O)N(C)CC(=O)N(C)C(C(C)C)C(=O)OC2C)c(N)c1=O (stereo unspecified)
inactive: dose: 500.0 micrograms/kg/injection, schedule: Q01DX001 (ip), vehicle: saline + alcohol 102 % of control | dose: 1000.0 micrograms/kg/injection, schedule: Q01DX001 (ip), vehicle: saline + alcohol 102 % of control

COc1cccc2c1C(=O)c1c(O)c3c(c(O)c1C2=O)C[C@@](O)(/C(C)=N\NC(=O)CO)C[C@@H]3OC1CC(N)C(O)C(C)O1 (stereo partly specified)
inactive: dose: 4.5 mg/kg/injection, schedule: Q07DX003 (iv), vehicle: other 104 % of control | dose: 7.0 mg/kg/injection, schedule: Q07DX003 (iv), vehicle: other 101 % of control | dose: 11.0 mg/kg/injection, schedule: Q07DX003 (iv), vehicle: other 108 % of control | dose: 17.0 mg/kg/injection, schedule: Q07DX003 (iv), vehicle: other 104 % of control

C[C@@]1(CO)[C@@H](O)CC[C@@]2(C)[C@H]1CC[C@H]1C[C@@H]3CC12CC[C@]3(O)CO
inactive: dose: 12.5 mg/kg/injection, schedule: Q04DX002 (ip), vehicle: distilled water + Tween-80 103 % of control | dose: 25.0 mg/kg/injection, schedule: Q04DX002 (ip), vehicle: distilled water + Tween-80 109 % of control | dose: 50.0 mg/kg/injection, schedule: Q04DX002 (ip), vehicle: distilled water + Tween-80 95 % of control | dose: 100.0 mg/kg/injection, schedule: Q04DX002 (ip), vehicle: distilled water + Tween-80 109 % of control | dose: 200.0 mg/kg/injection, schedule: Q04DX002 (ip), vehicle: distilled water + Tween-80 91 % of control | dose: 400.0 mg/kg/injection, schedule: Q04DX002 (ip), vehicle: distilled water + Tween-80 116 % of control

C/C=C/C1=CC(=O)C(O)C1O (stereo unspecified)
inactive: dose: 45.0 mg/kg/injection, schedule: Q04DX002 (ip), vehicle: water 106 % of control | dose: 90.0 mg/kg/injection, schedule: Q04DX002 (ip), vehicle: water 99 % of control | dose: 180.0 mg/kg/injection, schedule: Q04DX002 (ip), vehicle: water 101 % of control

O=C1NC(O)CCN1C1OC(CO)C(O)C1O (stereo unspecified)
inactive: dose: 50.0 mg/kg/injection, schedule: Q04DX003 (ip), vehicle: saline 101 % of control | dose: 100.0 mg/kg/injection, schedule: Q04DX003 (ip), vehicle: saline 101 % of control | dose: 200.0 mg/kg/injection, schedule: Q04DX003 (ip), vehicle: saline 98 % of control | dose: 400.0 mg/kg/injection, schedule: Q04DX003 (ip), vehicle: saline 100 % of control | dose: 800.0 mg/kg/injection, schedule: Q04DX003 (ip), vehicle: saline 108 % of control

CNc1nc(N(C)C)nc(N(C)C)n1
inactive: dose: 6.25 mg/kg/injection, schedule: Q04DX003 (ip), vehicle: water 105 % of control | dose: 12.5 mg/kg/injection, schedule: Q04DX003 (ip), vehicle: water 101 % of control | dose: 25.0 mg/kg/injection, schedule: Q04DX003 (ip), vehicle: water 98 % of control | dose: 50.0 mg/kg/injection, schedule: Q04DX003 (ip), vehicle: water 112 % of control | dose: 100.0 mg/kg/injection, schedule: Q04DX003 (ip), vehicle: water 121 % of control | dose: 200.0 mg/kg/injection, schedule: Q04DX003 (ip), vehicle: water 110 % of control

S=c1nc[nH]c2nc[nH]c12
active: dose: 50.0 mg/kg/injection, schedule: Q04DX003 (ip), vehicle: Klucel (hydroxypropylcellulose) (HPC) 191 % of control and 252 % of control | dose: 100.0 mg/kg/injection, schedule: Q04DX003 (ip), vehicle: Klucel (hydroxypropylcellulose) (HPC) 171 % of control
inactive: dose: 6.25 mg/kg/injection, schedule: Q04DX003 (ip), vehicle: Klucel (hydroxypropylcellulose) (HPC) 115 % of control | dose: 12.5 mg/kg/injection, schedule: Q04DX003 (ip), vehicle: Klucel (hydroxypropylcellulose) (HPC) 110 % of control | dose: 200.0 mg/kg/injection, schedule: Q04DX003 (ip), vehicle: Klucel (hydroxypropylcellulose) (HPC) 86 % of control

COc1cccc2c1C(=O)c1c(O)c3c(c(O)c1C2=O)C[C@@](O)(C(C)=O)C[C@@H]3OC1CC(N(C)C)C(O)C(C)O1 (stereo partly specified)
inactive: dose: 4.5 mg/kg/injection, schedule: Q07DX002 (iv), vehicle: saline 109 % of control | dose: 5.4 mg/kg/injection, schedule: Q04DX003 (ip), vehicle: water 119 % of control | dose: 7.0 mg/kg/injection, schedule: Q07DX002 (iv), vehicle: saline 114 % of control | dose: 11.0 mg/kg/injection, schedule: Q07DX002 (iv), vehicle: saline 113 % of control | dose: 15.0 mg/kg/injection, schedule: Q04DX003 (ip), vehicle: water 88 % of control | dose: 18.0 mg/kg/injection, schedule: Q07DX002 (iv), vehicle: saline 109 % of control | dose: 27.0 mg/kg/injection, schedule: Q07DX002 (iv), vehicle: saline 108 % of control | dose: 41.0 mg/kg/injection, schedule: Q07DX002 (iv), vehicle: saline 94 % of control
